Source: US8722626B2, “Method for controlling fibrosis and other pathological deposits in tissues comprising administering a GHRP-6 composition” (Centro de Ingenieria Genetica y Biotecnologia, priority 2006, dated 2014)
Marks after values point to notes of the source that are not given here.

Legend:
[1] = test system: hepatic fibrosis in male Wistar rats (CCl4); assay: Reverting hepatic fibrosis induced by carbon tetrachloride (CCl4) in rats (Example 2); type: in vivo, rat; parameters: SODt (oxidative stress marker) / Catalase (oxidative stress marker) / HPT (oxidative stress marker) / MDA (oxidative stress marker): unit not given here; settings: for GOT serum level / GPT serum level / OH—P Content (hydroxiproline) in the liver / Grade 0 (null) bridging fibro-proliferative reaction in liver, animals per group / Grade 1 (moderate, up to 25% of the slide), animals per group / Grade 2 (limited, up to 50% of the slide), animals per group / Grade 3 (severe, up to the 75% of the slide), animals per group / Grade 4 (very severe, over 75% of the slide), animals per group: four weeks; for GOT serum level / GPT serum level / OH—P Content (hydroxiproline) in the liver: end of treatment; for Grade 0 (null) bridging fibro-proliferative reaction in liver, animals per group / Grade 1 (moderate, up to 25% of the slide), animals per group / Grade 2 (limited, up to 50% of the slide), animals per group / Grade 3 (severe, up to the 75% of the slide), animals per group / Grade 4 (very severe, over 75% of the slide), animals per group: n = 15; for Catalase (oxidative stress marker) / HPT (oxidative stress marker) / MDA (oxidative stress marker) / SODt (oxidative stress marker): liver samples, end of the third week of treatment
Protocol: This experiment was conducted to evaluate the effect of the pharmaceutical composition containing the GHRP-6 on reverting hepatic fibrosis in rats, wherein said hepatic fibrosis was induced by carbon tetrachloride (CCl4). This is a hepatotoxic agent that causes chronic hepatitis and fibrosis after long-term administration. Hepatic fibrosis was induced in male Wistar rats of 250 g of body weight by intraperitoneally administered CCl4 50%/50% (v/v) in olive oil, twice per week during four weeks. After that time, 25% of the rats were sacrificed and subjected to blood biochemistry and pathological anatomy studies. […] The animals remaining were randomly distributed into three experimental groups of 15 rats each: (1) Control placebo group, receiving physiological saline solution, (2) Group receiving the GHRP-6 at a 100 μg/kg dosage, and (3) Group receiving the GHRP-6 at a 400 μg/kg dosage. […] Treatments were started immediately after the fibrosis established and the suspension of CCl4 administration. […] Liver fragments were fixed in formalin neutral and processed by hematoxylin/eosin staining, or by Masson's trichromic staining, to evaluate the general damage and the severity of fibrotic indurations. Other fragments of liver tissues were stored at −70° C. until processing to determine the content of hydroxiproline by acid hydrolysis in 1N HCl, and also the intrahepatic levels of redox metabolism markers. Biochemical determinations were carried out by calculating the total protein content by the Bradford's method. The response to the treatment with the pharmaceutical composition was characterized by determining the serum levels of GOT and GPT transaminases, histological criteria in quantitative scale and some markers distinctive of the levels of lipid peroxidation.

[2] = test system: male APP transgenic mice expressing the beta-amiloid precursor protein; assay: Beta-amiloid protein deposition in brain of APP transgenic mice (Example 5); type: in vivo, mouse; parameters: SODt (oxidative stress marker) / Catalase (oxidative stress marker) / HPT (oxidative stress marker) / MDA (oxidative stress marker): unit not given here; settings: 8 weeks; for Catalase (oxidative stress marker) / HPT (oxidative stress marker) / MDA (oxidative stress marker) / SODt (oxidative stress marker): brain tissues; for No. of deposits positive to Congo Red / No. of deposits positive to beta-amiloid / Size of amiloid plaques: brain
Protocol: This study was conducted to evaluate the influence of the long-term administration (8 weeks) of the GHRP-6 on the biochemical and morphological markers in the brain of transgenic mice expressing the beta-amiloid precursor protein, these markers also indicating the progression of the central nervous system damage. For the present study, 20-25 g in body weight male APP transgenic mice were acquired, expressing the beta-amiloid precursor protein. Animals (N=30) were randomly distributed in:
Placebo group—Physiological saline solution 0.9%.
Dosage I group—GHRP-6 at 50 μg/kg of body weight in saline solution.
Dosage II group—GRHP-6 at 100 μg/kg of body weight in saline solution.
Treatments were applied by the intraperitoneal route in 1 ml, five days a week during 8 weeks, with animals receiving 40 administrations of GHRP-6. We knew from previous exploratory pilot studies that this period of time was sufficient for improving cognitive and motor skills in animals under stress.
After 8 weeks of treatment, mice were sacrificed by anesthesia overdose, and perfused in situ with saline solution. Encephala were extracted, one encephalon was frozen in dry-ice and the other was fixed in 4% para-formaldehyde neutral. Samples were cryo-sliced at 10 μm and slices were stained with hematoxylin/eosin, Congo Red, or incubated with an antibody specific for the beta-amiloid protein. Morphometric procedures were carried out by microscopic imaging capture by a camera connected to the microscope, and the images were analyzed with the DIGIPAT software.
The number of fibrillar deposits of the beta-amiloid protein positive to Congo Red staining.
The number of foci immunoreactive to the antibody that recognizes the beta-amiloid protein.
Size of the beta-amiloid plaques in the brain, recognized at 200× and 400× magnifications (μm^2).
Brain concentration of myo-inositol as indicator of aging and brain metabolism deterioration (μmol/g of tissue).

[3] = Dosage II: 400 μg/kg once daily
[4] = Dosage I: 50 μg/kg i.p. five days a week
[5] = Dosage II: 100 μg/kg i.p. five days a week

## GHRP-6
[1]; Dosage I: 100 μg/kg once daily
  GOT serum level: 56.31 ± 12.19 IU/l
  GPT serum level: 77.15 ± 22.66 IU/l
  OH—P Content (hydroxiproline) in the liver: 40.21 ± 3.54 μg/g of total proteins
  Grade 0 (null) bridging fibro-proliferative reaction in liver, animals per group: 0
  Grade 1 (moderate, up to 25% of the slide), animals per group: 9
  Grade 2 (limited, up to 50% of the slide), animals per group: 6*
  Grade 3 (severe, up to the 75% of the slide), animals per group: 0
  Grade 4 (very severe, over 75% of the slide), animals per group: 0
[1]; [3]
  GOT serum level: 28.18 ± 4.71 IU/l
  GPT serum level: 26.94 ± 12.42 IU/l
  OH—P Content (hydroxiproline) in the liver: 10.22 ± 4.33 μg/g of total proteins
  Grade 0 (null) bridging fibro-proliferative reaction in liver, animals per group: 8*
  Grade 1 (moderate, up to 25% of the slide), animals per group: 7
  Grade 2 (limited, up to 50% of the slide), animals per group: 0
  Grade 3 (severe, up to the 75% of the slide), animals per group: 0
  Grade 4 (very severe, over 75% of the slide), animals per group: 0
[1]; Dosage I: 100 μg/kg
  Catalase (oxidative stress marker): 60.43 ± 11.81
  HPT (oxidative stress marker): 55.11 ± 2.77
  MDA (oxidative stress marker): 0.16 ± 1.16
  SODt (oxidative stress marker): 17632.08 ± 321.55
[1]; Dosage II: 400 μg/kg
  Catalase (oxidative stress marker): 22.67 ± 3.56
  HPT (oxidative stress marker): 26.44 ± 2.43
  MDA (oxidative stress marker): 0.09 ± 0.01
  SODt (oxidative stress marker): 20187.87 ± 245.13
[1]; repeated CCl4 administration
  Deposition of collagenous and extracellular matrix materials in the liver parenchyma (overall result): eradicate and control deposition of collagenous and extracellular matrix materials
  Hepatocytes death: prevents individual, focal and pericentrolobular hepatocytes death
[2]; [4]
  Myo-inositol concentration in the brain.: 49.35 ± 10 μmol/g of tissue
  No. of deposits positive to Congo Red: 21.78 ± 6.57
  No. of deposits positive to beta-amiloid: 15.11 ± 3.27
  Size of amiloid plaques: 15.51 ± 6.44 μm^2
[2]; [5]
  Myo-inositol concentration in the brain.: 27.45 ± 8.61 μmol/g of tissue
  No. of deposits positive to Congo Red: 14.52 ± 4.18
  No. of deposits positive to beta-amiloid: 13.58 ± 4.61
  Size of amiloid plaques: 10.88 ± 4.1 μm^2
[2]; Dosage I: 50 μg/kg i.p.
  Catalase (oxidative stress marker): 81.6 ± 15.25
  HPT (oxidative stress marker): 54.3 ± 11.87
  MDA (oxidative stress marker): 0.77 ± 1.56
  SODt (oxidative stress marker): 611.17 ± 44.79
[2]; Dosage II: 100 μg/kg i.p.
  Catalase (oxidative stress marker): 60.18 ± 13.67
  HPT (oxidative stress marker): 21.25 ± 5.44
  MDA (oxidative stress marker): 0.4 ± 0.02
  SODt (oxidative stress marker): 863.22 ± 50.3
